Reference: patent publication US20240018105A1, “TROPOLONE DERIVATIVES AND TAUTOMERS THEREOF FOR IRON REGULATION IN ANIMALS” (Kinesid Therapeutics, Inc., priority 2019, published 2024)

Test: Ligand facilitated Fe(III) efflux from liposomes
Details: 10 uM ligand concentration; for Liposome Fe transport kefflux at 10 10 μM: Table 1; for Liposome Fe transport Kefflux at 10 μM: Table 2
Protocol: Assay 1: Ligand Facilitated Fe(III) Efflux from Liposomes Preparation of POPC (1-palmitoyl-2-oleoyl-sn-glycero-3-phosphocholine): Cholesterol Liposomes:
A 1M buffer solution of MES and Tris was prepared by dissolving 121.14 grams of Tris base and 213.25 grams of MES hydrate in 500 mL of MilliQ water and adjusted to pH7.0 using an […] HCl solution before bringing the total volume of the solution to 1 L. A 500 mM solution of FeCl3 was prepared by dissolving 0.811 grams of anhydrous FeCl3 in 10 mL of a 0.1M H2SO4 aqueous solution. Inside buffer is prepared in a 50 mL falcon tube, which was added with 25 mL of MilliQ water, 1.61 g of sodium citrate, 1.5 mL of the above FeCl3 solution, and 2.5 mL of the 1M MES/Tris HCl buffer (pH=7.0), and finally additional MilliQ H2O to bring to a 50 mL final volume.
Lipid solution is prepared by dissolving 206.9 mg of POPC (1-palmitoyl-2-oleoyl-sn-glycero-3-phosphocholine) and 8.6 mg of cholesterol in 10 mL of ethanol.
The lipids solution and the inside buffer solution are independently loaded into 10 mL luer lock syringes for loading into a virgin cartridge on a Precision Nanosystems NanoAssembler to prepare unilamaller liposomes with the following parameters: 7.5 mL total volume, 1.5:1 mixing ratio of inside buffer:lipids solution, 8 mL/min flow rate, ambient temperature, 0.35 mL start waste, and 0.05 mL of end waste. 7.5 mL of liposomes is harvested for purification on a 6-inch long, 1-inch diameter Sephadex G-50 column wetted in 600 mM sodium ascorbate and 50 mM MES/Tris HCl pH 7.0 buffer. This buffer also serves as the column running buffer. The crude liposome solution is carefully loaded with minimal volume of running buffer above the top of the Sphadex, allowed to enter the matrix, and the column is run with the continued addition of running buffer. The eluting liposomes, observed as a milky and turbid solution, are collected until free iron begins to elute (observed as a deep purple color) and the fractions are pooled for phosphorus quantitation.
Phosphorus content of eluted liposomes was determined by the process outlined below. 10 uL of liposome elution and a running buffer blank are added to a 5 mL glass vial containing 450 uL of a 8.9 M aqueous H2SO4 solution, the mixture is heated to 225° C. for 25 minutes in an aluminum heat block to hydrolyze POPC and cooled for 5 minutes. 200 ul of a 30% hydrogen peroxide aqueous solution is added to each vial and heated to 225° C. for 25 minutes. After cooling, the phosphorus content was determined using an Abcam Phosphate Assay kit, with buffer subtracted phosphorus levels determined against a standard curve of phosphate included in the kit. Liposomes were diluted to 1 mM phosphate in Running Buffer for use in assays after accounting for dilutions made during phospholipid digestion.
Determination of the rate at which a small molecule ligand liberates (transport) Ferric iron from liposomes is performed in clear bottom black 384-well plates on a Spectramax i3x set to read the absorbance at 562 nm in the kinetic mode every 60 seconds for 120 minutes. 1 uL of serially diluted DMSO stock solution of a small molecule ligand is added to wells in triplicate to give the final concentrations of 40, 20, 10, 5, 2.5, and 1.25 uM of the ligand at 80 μL final volume, followed by addition of 1 μL of 100 mM Ferrozine in water to give a final concentration of 1 mM ferrozine. 78 uL of liposomes diluted to 1 mM phosphorus in running buffer is added to wells as quickly as possible (using a digital repeater mulchannel pipette) with the kinetic read initiated as rapidly as possible after addition of liposomes to all wells. Typically, eight compounds at six concentrations are tested in triplicate simultaneously.
Upon completion of kinetic read, the data for individual reads is fitted to a single phase association regression with the equation Y=(Y0−YMax)^(−kX)+YMax, with Y being the 562 absorbance value and X being time in minutes. […]

Compound | Liposome Fe transport kefflux at 10 10 μM | Liposome Fe transport Kefflux at 10 μM
Cc1ccncc1-c1cccc(=O)c(O)c1 [Ex.14, 2-hydroxy-4-(4-methylpyridin-3-yl)cyclohepta-2,4,6-trien-1-one] | 0.1-5 | 
O=c1ccccc(-c2nccs2)c1O [Ex.80, 2-hydroxy-3-(thiazol-2-yl)cyclohepta-2,4,6-trien-1-one] |  | 5-7.5
O=c1ccccc(-c2ncccc2F)c1O [Ex.71, 3-(3-fluoropyridin-2-yl)-2-hydroxycyclohepta-2,4,6-trien-1-one] |  | 0.1-5
O=c1ccccc(-c2c(F)cccc2F)c1O [Ex.68, 3-(2,6-difluorophenyl)-2-hydroxycyclohepta-2,4,6-trien-1-one] |  | 7.5-10
Cc1nc(C)c(-c2ccc(O)c(=O)cc2)cc1F.O=C(O)C(F)(F)F [Ex.21, 5-(5-fluoro-2,6-dimethylpyridin-3-yl)-2-hydroxycyclohepta-2,4,6-trien-1-one] | 0.1-5 | 
O=C1C=CC(CCc2nc(-c3ccccc(=O)c3O)ccc2F)S1 (stereo not drawn) [Ex.74, 5-(2-(3-fluoro-6-(2-hydroxy-3-oxocyclohepta-1,4,6-trien-1-yl)pyridin-2-yl)ethyl)thiophen-2(5H)-one] |  | 0.1-5
Nc1ncc(-c2cccc(=O)c(O)c2)cn1.O=C(O)C(F)(F)F [Ex.41, 4-(2-aminopyrimidin-5-yl)-2-hydroxycyclohepta-2,4,6-trien-1-one] | 0.1-5 | 
O=c1cccc(-c2ccncc2)cc1O [Ex.7, 2-hydroxy-4-(pyridin-4-yl)cyclohepta-2,4,6-trien-1-one] | 0.1-5 | 
Cc1cncc(-c2cccc(=O)c(O)c2)c1 [Ex.55, 2-hydroxy-4-(5-methylpyridin-3-yl)cyclohepta-2,4,6-trien-1-one] | 0.1-5 | 
O=c1ccc(-c2ccc(F)cn2)ccc1O [Ex.22, 5-(5-fluoropyridin-2-yl)-2-hydroxycyclohepta-2,4,6-trien-1-one] | 0.1-5 | 
CC(C)c1cccc(-c2cncc(F)c2)c(=O)c1O [Ex.62, 7-(5-fluoropyridin-3-yl)-2-hydroxy-3-isopropylcyclohepta-2,4,6-trien-1-one] |  | <0.1
Cc1cccc(Oc2ccc(F)cc2F)c(O)c1=O [Ex.77, 3-(2,4-difluorophenoxy)-2-hydroxy-7-methylcyclohepta-2,4,6-trien-1-one] |  | 0.1-5
Cc1c(F)cncc1-c1ccc(O)c(=O)c(C)c1 [Ex.63, 4-(5-fluoro-4-methylpyridin-3-yl)-7-hydroxy-2-methylcyclohepta-2,4,6-trien-1-one] |  | 10-25
O=c1ccccc(-c2ccns2)c1O [Ex.85, 2-hydroxy-3-(isothiazol-5-yl)cyclohepta-2,4,6-trien-1-one] |  | 0.1-5
O=c1ccccc(-c2ccc(F)cn2)c1S [Ex.72, 3-(5-fluoropyridin-2-yl)-2-mercaptocyclohepta-2,4,6-trien-1-one] |  | 7.5-10
O=c1cccc(-c2ncccn2)cc1O [Ex.43, 2-hydroxy-4-(pyrimidin-2-yl)cyclohepta-2,4,6-trien-1-one] | 5-7.5 | 
Cc1nc(C)c(-c2cccc(=O)c(O)c2)cc1F.O=C(O)C(F)(F)F [Ex.20, 4-(5-fluoro-2,6-dimethylpyridin-3-yl)-2-hydroxycyclohepta-2,4,6-trien-1-one] | 0.1-5 | 

Compound | Liposome Fe transport kefflux at 10 10 μM | Liposome Fe transport Kefflux at 10 μM
CSc1nccc(-c2ccccc(O)c2=O)n1 [Ex.40, 2-hydroxy-7-(2-(methylthio)pyrimidin-4-yl)cyclohepta-2,4,6-trien-1-one] | 5-7.5 | 
O=c1c(Cl)cccc(-c2cscn2)c1O [Ex.82, 7-chloro-2-hydroxy-3-(thiazol-4-yl)cyclohepta-2,4,6-trien-1-one] |  | 0.1-5
Cc1ncc(F)cc1-c1ccc(O)c(=O)cc1 [Ex.60, 5-(5-fluoro-2-methylpyridin-3-yl)-2-hydroxycyclohepta-2,4,6-trien-1-one] | 0.1-5 | 
O=c1ccc(Oc2ccc(F)cc2)ccc1O [Ex.65, 5-(4-fluorophenoxy)-2-hydroxycyclohepta-2,4,6-trien-1-one] |  | 5-7.5
O=c1ccc(C(CO)Cc2ccccc2)cc(-c2cscn2)c1O (stereo not drawn) [Ex.87, 2-hydroxy-5-(1-hydroxy-3-phenylpropan-2-yl)-3-(thiazol-4-yl)cyclohepta-2,4,6-trien-1-one] |  | 0.1-5
O=c1c(F)cccc(-c2cscn2)c1O [Ex.81, 7-fluoro-2-hydroxy-3-(thiazol-4-yl)cyclohepta-2,4,6-trien-1-one] |  | 7.5-10
O=c1ccccc(-c2cocn2)c1O [Ex.79, 2-hydroxy-3-(oxazol-4-yl)cyclohepta-2,4,6-trien-1-one] |  | 5-7.5
Cc1cccc(-c2cncc(F)c2)c(=O)c1O.O=C(O)C(F)(F)F [Ex.27, 7-(5-fluoropyridin-3-yl)-2-hydroxy-3-methylcyclohepta-2,4,6-trien-1-one] | 10-25 | 
Cc1cccc(Oc2ccccc2)c(O)c1=O [Ex.78, 2-hydroxy-7-methyl-3-phenoxycyclohepta-2,4,6-trien-1-one] |  | 0.1-5
COC(=O)c1ccc(Oc2ccccc(=O)c2O)c(F)c1 [Ex.86, methyl 3-fluoro-4-((2-hydroxy-3-oxocyclohepta-1,4,6-trien-1-yl)oxy)benzoate] |  | 0.1-5
O=c1ccc(F)cc(-c2cscn2)c1O [Ex.83, 5-fluoro-2-hydroxy-3-(thiazol-4-yl)cyclohepta-2,4,6-trien-1-one] |  | 0.1-5
O=c1ccc(-c2ncccn2)ccc1O [Ex.44, 2-hydroxy-5-(pyrimidin-2-yl)cyclohepta-2,4,6-trien-1-one] | 0.1-5 | 
Cc1c(F)cncc1-c1ccc(O)c(=O)c(C(C)C)c1 [Ex.64, 4-(5-fluoro-4-methylpyridin-3-yl)-7-hydroxy-2-isopropylcyclohepta-2,4,6-trien-1-one] |  | <0.1
Cc1cc(-c2ccc(F)cn2)ccc(O)c1=O.O=C(O)C(F)(F)F [Ex.25, 4-(5-fluoropyridin-2-yl)-7-hydroxy-2-methylcyclohepta-2,4,6-trien-1-one] | 5-7.5 | 
COC(=O)Cc1ccc(Oc2ccccc(=O)c2O)c(F)c1 [Ex.84, methyl 2-(3-fluoro-4-((2-hydroxy-3-oxocyclohepta-1,4,6-trien-1-yl)oxy)phenyl)acetate] |  | 5-7.5
Nc1ccc(-c2cccc(=O)c(O)c2)cn1 [Ex.13, 4-(6-aminopyridin-3-yl)-2-hydroxycyclohepta-2,4,6-trien-1-one] | 0.1-5 | 
